Source: the NIST ThermoML archive (doi:10.1016/j.fluid.2013.06.007)
Numbers after ± are expanded uncertainties.

Key:
[1] = 298.2 K; 101.33 kPa; Liquid; Vibrating tube method
[2] = refractive index (Na D-line) (dimensionless); settings: 298.2 K; 101.33 kPa; Liquid; Standard Abbe refractometry

mass density [1] [kg/m3] | refractive index [2] | SMILES
815.167 ± 0.83 | 1.416 ± 0.0005 | CCCCCCO [hexan-1-ol]
818.915 ± 0.63 | 1.4224 ± 0.0004 | CCCCCCCO [heptan-1-ol]
 | 1.3325 ± 0.0004 | O [water]
811.288 ± 0.63 | 1.4078 ± 0.0004 | CCCCCO [pentan-1-ol]

The remaining lines, values behind:

SMILES | mass density [1] [kg/m3] | refractive index [2]
CCCCO [butan-1-ol] | 805.877 ± 0.63 | 1.3972 ± 0.0004
CC(O)C(=O)O (stereo not drawn) [2-hydroxypropanoic acid] | 1199.91 ± 87 | 1.4243 ± 0.003
CCC(C)O (stereo not drawn) [butan-2-ol] | 802.362 ± 0.63 | 1.394 ± 0.0004
